The test system of one experiment is IKK2, p53, PARP-1. The experiment can be described thus: Western blot of 501mel cell extracts (IKK2, p53, poly-(ADP rybosyl)ation). The format is cell-based, human. The method, then:
Western blots were carried out as previously described (Hilmi et al. 2008). Briefly, cell lysates (30 μg) were separated by SDS-PAGE, transferred on to a PVDF membrane and then exposed to the appropriate antibodies, anti-MITF (Abcam), anti-ERK2 (D-2 Santa Cruz biotechnology), anti-p53 (DO-1, Santa Cruz biotechnology), anti-PARP (Santa Cruz biotechnology), anti-IKK2 and anti-PARP (Cell Signaling Technology Inc.). Horseradish peroxidase-conjugated anti-rabbit or anti-mouse antibodies were from Dakopatts (Glostrup, Denmark). Proteins were visualized with the ECL system (Amersham). The western blots shown are representative of at least 3 independent experiments.
(In general: In western blotting, separated proteins are transferred to a membrane and probed.)

The subject of a further experiment is NF-kB. The experiment can be described thus: NF-kB luciferase reporter assay in 501mel cells. The format is cell-based, human. The protocol:
501mel melanoma cells were transiently transfected as previously described using the lipofectamine reagent (Invitrogen) (Bertolotto et al. 1998). Briefly, cells were transiently transfected with 0.3 μg of NF-kB reporter construct and 0.05 μg pCMVbGal to control the variability in transfection efficiency. The transfection medium was changed 6 hours later and when indicated, cells were transfected as described above with 50 nM of siC or siMi and/or siIKK2 or were exposed to drugs. Cells were assayed for luciferase and b-galactosidase activities 48 hours later. Transfections were repeated at least three times.

Another experiment has as its system CCL2. The experiment can be described thus: CCL2 ELISA in supernatant of MCF7 cells. It is filed as cell-based, human. As to conditions: for effect on CCL2 secretion of H2O2-treated senescent MCF7 cells: sulfasalazine 500 μM, 3-AB 20 mM. Set-up: CCL2 secretion of MCF7 cells: dose or concentration left out as unconfirmed. From the text:
CCL2 level in the supernatant of the different melanoma cell lines, in that of MCF7 cells or in that of 501mel cells transfected with siC or siMi for 96 hrs, in presence or absence of drugs, was quantified by ELISA (R&D systems). Results from two independent experiments were normalized to cell number and expressed as ng/ml/10^6 cells.
A general note: ELISA stands for enzyme-linked immunosorbent assay.

In experiment [1] the test system is p65/RELA subunit of NF-kB. Description: Immunofluorescence of p65/RelA localization in melanoma cells. The format is cell-based, human. As to conditions: for effect on NF-kB nuclear relocation by MITF-silencing: 3-AB 20 mM, sulfasalazine 500 μM. The method, then: Melanoma cells seeded on glass coverslips in 12-well dishes, were transfected with siC or siMi. When indicated cells were exposed to TNFa (10 ng/ml). Ninety-six hours later, cells were fixed and permeabilized as previously described (Khaled et al. 2003) before being exposed to anti-MITF (Abcam), anti-p65/RelA (Santa Cruz biotechnology), 53BP1 (Bethyl Laboratories) and E-cadherin (BD Transduction Laboratories) antibodies. Cells were washed thrice with PBS, and then incubated for 1 hour with 1:1000 dilution anti-mouse or anti-rabbit Alexa Fluor 488 or Alexa Fluor 594 labeled secondary antibody (Invitrogen, San Diego, Calif., USA) and mounted using Gel/Mount (Biomeda corp., Foster City Calif.). Immunofluorescences were examined and photographed with a Zeiss Axiophot microscope equipped with epifluorescence illumination.

The next experiment relates to MITF. As to conditions: Mhaidat et al. 2007; Liu et al. 2009; cited from earlier work.
A further experiment deals with MCF7 cells. The experiment can be described thus: Invasion assay, Boyden chamber, naive MCF7 cells. It is filed as cell-based, human. The protocol:
(a) Conditioned media of control or senescent MCF7 (H2O2 treated) were added to the lower compartment of Boyden chambers to assess their chemotactic activity. Cells that had migrated to the underside of the upper compartment were stained 24 hrs later with crystal violet and the number of nuclei was counted using NIH-imageJ analysis software. Values represent mean+SD of three independent experiments. (b) ELISA test of CCL2 level in the conditioned media of control MCF7 or MCF7 incubated with H2O2 ([…]) and when indicated with sulfasalazine (500 μM) or 3-AB (20 mM). Data are represented as mean+SD.
(§1) Cell invasion was assessed using a modified Boyden chamber assay with […] pore filter inserts for 24-well plates (BD Bioscience). 501mel cells were seeded on the upper chamber of matrigel-coated trans-well and chemoattractants (conditioned media or recombinant molecules) placed into the lower chamber. Twenty-four hours later, cells adherent to the underside of the filters were fixed with 4% PFA, stained with 0.4% crystal violet and five random fields at ×20 magnification were counted. Results represent the average of triplicate samples from three independent experiments.

Experiment [2] relates to MCF7 human breast cancer cells. Description: Senescence, DNA damage and NF-kB activation of MCF7 cells. The format is cell-based. The method, then: (§2) 501mel human melanoma cells and MCF7 human breast cancer cells were grown in DMEM supplemented with 7% FBS at 37° C. in a humidified atmosphere containing 5% CO2. Lipofectamine™ RNAiMAX and opti-MEM medium were purchased from Invitrogen (San Diego, Calif., USA). TNFa and recombinant human CCL2 were from PeproTech Inc (Rocky Hill, N.J.), sulfasalazine and 3-AB from Sigma Chem. Co (St Louis, Mo.), mouse anti-CCL2 from R&D Systems and KU55933 from Calbiochem. The senescence b-galactosidase staining kit from Cell Signaling Technology (Beverly, Mass., USA) was used to histochemically detect b-galactosidase activity at pH6 as previously reported (Giuliano et al. 2010a). The percentage of means and standard deviations were derived from counting 100 cells in duplicate plates after 96 hrs.
We next wondered if a similar PARP-1 and NF-kB-assiocated secretome (PNAS) could be observed in non-melanoma cells that have entered a program of senescence. […] Although CCL2 was not expected to be the major component of MCF7's secretome, CCL2 measurement was used as a readout of its formation. […] Together, our result reveal that PNAS during cellular senescence is a common mechanism that relies on activation of the DNA damages/NF-kB signaling cascade in both melanoma and non-melanoma cell lines.

The test system of experiment [3] is 501mel human melanoma cells. The experiment can be described thus: Senescence of 501mel melanoma cells (morphology, SA-b-Gal staining at pH6). As to conditions: flattened and enlarged morphology, SA-b-Gal reactivity at pH6. It is filed as cell-based. The method, then: as §2
Another experiment relates to 501mel cells. The experiment can be described thus: Invasion assay, matrigel-coated modified Boyden chamber, naive 501mel cells. It is filed as cell-based, human. As to conditions: recombinant CCL2 100 ng/ml as chemoattractant. The protocol: as §1
Where [4] appears, read: 3-AB 20 mM, sulfasalazine 500 μM.

This is an account of results in patent publication US20140199292A1, “COMPOSITIONS AND METHODS FOR INHIBITING TUMOR DEVELOPMENT CAUSED BY CHEMOTHERAPY INDUCED SENESCENCE” (INSERM (Institut National de la Sante et de la Recherche …, priority 2011, published 2014).

Take `NC(=O)c1cccc(N)c1` [3-AB, 3-aminobenzamide]: the “effect on p53 up-regulation mediated by MITF silencing” value in the experiment with IKK2, p53, PARP-1 (western blot) was “almost completely abrogated”. For the same compound, the “effect on NF-kB transcriptional activity stimulated by oxidative stress and chemotherapeutic drugs” value with NF-kB (3-AB 20 mM, FMT 40 mM, TMZ 900 nM, H2O2 100 mM) is “prevented”. In addition, the “effect on stimulation of NF-kB transcriptional activity by MITF-silencing” value in the experiment on NF-kB (setting [4]) is recorded as “no longer able”. In addition, the “effect on CCL2 secretion of H2O2-treated senescent MCF7 cells” value in the experiment on CCL2 is “impaired”. The “effect on NF-kB nuclear relocation by MITF-silencing” value in experiment [1] is listed as “no longer able to relocate NF-kB to the nucleus”.
Regarding `OO` [H2O2], in the experiment on MITF, the MITF expression result is given as “decreased the expression of MITF”. Moreover, in the experiment on MCF7 cells, the “invasion of naive MCF7 cells toward supernatant of treated (senescent) MCF7” value is “enhanced the invasion of naïve MCF7 cells”. Further, the “poly-(ADP rybosyl)ation in melanoma cells” value in the experiment with IKK2, p53, PARP-1 is given as “increased poly-(ADP rybosyl)ation”. In [2], the “DNA damage in MCF7 cells (gH2AX labeling)” value is given as “DNA damage induction” and the “NF-kB activity in MCF7 cells (nuclear localization of p65/RELA)” value was “stimulation of NF-kB activity”. The “senescence of MCF7 cells” value in experiment [2] (morphological changes, SA-b-galactosidase, p53 and p21) is on record as “underwent senescence”. In addition, in the experiment with CCL2 (H2O2), the “CCL2 secretion of MCF7 cells” value is listed as “resulted in CCL2 secretion”. Besides, in experiment [3], the “senescence of melanoma cells” value was “underwent premature senescence”.
Take `CCOP(=O)(OCC)C(C)NC(=O)N(CCCl)N=O` (centres unmarked) [fotemustine]: the “senescence of melanoma cells” value in experiment [3] is on record as “extended these findings”.
Regarding `O=C(O)c1cc(/N=N/c2ccc(S(=O)(=O)Nc3ccccn3)cc2)ccc1O` [sulfasalazine], in the experiment on IKK2, p53, PARP-1 (western blot), the “effect on IKK2 up-regulation mediated by MITF silencing” value is recorded as “abrogated” and the “effect on p53 up-regulation mediated by MITF silencing” value is recorded as “modestly affected”. The “effect on stimulation of NF-kB transcriptional activity by MITF-silencing” value in the experiment on NF-kB (setting [4]) is reported as “no longer able”. In the experiment on NF-kB (sulfasalazine 500 μM, siIKK2 co-knockdown), the “effect on activation of the NF-kB reporter gene by siMITF or TNFa” value was “prevented activation of the NF-kB reporter gene”. Besides, in the experiment with CCL2, the “effect on CCL2 secretion of H2O2-treated senescent MCF7 cells” value was “impaired”. Also, the “effect on NF-kB nuclear relocation by MITF-silencing” value in experiment [1] was “no longer able to relocate NF-kB to the nucleus”.
Regarding “CCL2: recombinant human CCL2 from PeproTech, chemokine”, the “invasive capability of naive 501mel cells” value in the experiment on 501mel cells is listed as “stimulated the invasive capability”.
Take TNFa: the “NF-kB transcriptional activity (luciferase reporter)” value in the experiment with NF-kB (501mel cells, TNFα 10 ng/ml, FMT 40 mM, TMZ 900 nM, H2O2 100 mM) is given as “up-regulated”. Moreover, in experiment [1] (TNFa 10 ng/ml), the “cellular localization of p65/RELA” value is recorded as “p65 relocalized to the nucleus”.
